From US20100041760A1, “MONOARYL AMINOTETRALINES” (priority 2008, published 2010)

Tests used:
human CRTH2 = molecular target: T1, human CRTH2 (Homo sapiens, UniProt Q9Y5Y4); assay: Human CRTH2 Receptor Binding Assay (whole cell, [3H]ramatroban competition); design: expressed in transfected cells; host or cells: CHO-K1 (co-transfected with G-alpha16); conditions: CHO-K1 cells expressing human CRTH2 and G-alpha16; 20 nM [3H]ramatroban; 1 hour, room temperature
T1 sequence (Q9Y5Y4 1-395): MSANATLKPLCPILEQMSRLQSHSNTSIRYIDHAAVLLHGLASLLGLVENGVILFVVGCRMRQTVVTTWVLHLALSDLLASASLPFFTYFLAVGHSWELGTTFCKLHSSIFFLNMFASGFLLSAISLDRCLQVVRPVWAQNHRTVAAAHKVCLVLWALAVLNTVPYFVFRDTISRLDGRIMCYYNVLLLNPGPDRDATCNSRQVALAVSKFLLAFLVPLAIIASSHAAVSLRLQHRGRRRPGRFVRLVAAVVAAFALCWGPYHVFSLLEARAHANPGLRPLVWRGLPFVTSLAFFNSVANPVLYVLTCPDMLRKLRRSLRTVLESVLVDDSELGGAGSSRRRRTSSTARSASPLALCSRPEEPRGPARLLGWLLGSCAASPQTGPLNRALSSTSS
Description: A whole cell receptor binding assay using [^3H]ramatroban as the competing radioactive ligand was employed to evaluate the compound binding activity to human CRTH2. The radioactive ligand [^3H]ramatroban was synthesized according to Sugimoto et. al. (Eur. J. Pharmacol. 524, 30-37, 2005) to a specific activity of 42 Ci/mmol.
A cell line stably expressing human CRTH2 was established by transfecting CHO-K1 cells with two mammalian expression vectors that harbored human CRTH2 and G-alpha16 cDNAs, respectively, using FuGene® 6 transfection reagent (from Roche). Stable clones expressing CRTH2 were selected by staining each clone with BM16 (BD Pharmingen™ from BD Biosciences, a division of Becton, Dickinson and Company), which is a rat monoclonal antibody to human CRTH2. The cells were maintained as monolayer cultures in Ham's F-12 medium containing 10% fetal bovine serum, 100 units/mL penicillin, 100 μg/mL streptomycin, 2 mM glutamine, 0.5 mg/mL G418 (geneticin) for CRTH2, and 0.2 mg/mL hygromycin-B (for G-alpha 16). For whole cell receptor binding assay, the monolayer cells were rinsed once with PBS (phosphate buffered saline), dissociated using ethylenediaminetetraacetate (Versene™ EDTA from Lonza Inc.), and suspended in PBS containing 10 mM MgCl2 and 0.06% BSA (bovine serum albumin) at 1.5×10^6 cells/mL.
The binding reactions (0.2 mL) were performed in 96-well plates at room temperature in PBS containing 1.5×10^5 cells, 10 mM MgCl2, 0.06% BSA, 20 nM [^3H]ramatroban, and test compound at various concentrations. After 1 hour of binding reactions, the cells were harvested on GF™/B filter microplates (microtiter plates with embedded glass fiber from PerkinElmer, Inc.) and washed 5 times with PBS using a Filtermate™ Harvester (a cell harvester that harvests and washes cells from microplates from PerkinElmer, Inc.). The radioactivities bound to the cells were determined using a microplate scintillation counter (TopCount® NXT, from PerkinElmer, Inc.) after adding 50 μL of Microscint™ 20 scintillation fluid (from PerkinElmer, Inc.) to each well of the filter plates. The radioactivity from non-specific binding was determined by replacing compound with 10 μM of 15(R)-15-methyl PGD2 (from Cayman Chemical Company) in the reaction mixtures. The radioactivity bound to the cells in the absence of compound (total binding) was determined by replacing compound with 0.25% of DMSO (dimethyl sulfoxide) in the reaction mixture. Specific binding data were obtained by subtracting the radioactivity of non-specific binding from each binding data.
(§1) The IC50 value is defined as the concentration of the tested compound that is required for 50% inhibition of total specific binding. In order to calculate the IC50 value, the percent inhibition data were determined for 7 concentrations for each compound. The percent inhibition for a compound at each concentration was calculated according to the following formula, [1−(specific binding in the presence of compound)/(total specific binding)]×100. The IC50 value was then obtained by fitting the percent inhibition data to a sigmoidal dose-response (4 parameter logistic) model in the XLfit® software Excel add-in program [from ID Business Solutions Ltd., model 205, where F(x)=(A+(B−A)/(1+((C/x)̂D)))].

[1] = molecular target: T2, thromboxane A2 receptor (TP) (Homo sapiens, UniProt P21731); assay: Human Thromboxane A2 Receptor Binding Assay; conditions: human platelets; 10 nM [3H]SQ29548; 1 hour, room temperature
T2 construct: using human platelets as the source of the receptor; from tissue; host or cells: human platelets (whole platelets, 5x10^7 per well)
T2 sequence (P21731 1-343): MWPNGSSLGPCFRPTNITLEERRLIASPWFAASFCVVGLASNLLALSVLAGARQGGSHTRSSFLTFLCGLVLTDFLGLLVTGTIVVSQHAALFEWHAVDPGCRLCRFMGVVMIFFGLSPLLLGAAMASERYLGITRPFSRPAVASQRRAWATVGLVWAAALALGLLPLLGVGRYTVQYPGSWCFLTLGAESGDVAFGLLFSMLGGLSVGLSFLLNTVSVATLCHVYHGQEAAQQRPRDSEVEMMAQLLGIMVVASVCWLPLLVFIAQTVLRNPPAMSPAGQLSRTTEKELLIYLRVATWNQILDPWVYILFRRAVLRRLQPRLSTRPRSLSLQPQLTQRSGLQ
Description: The thromboxane A2 receptor (TP) plays a key role in hemostasis as its abnormality leads to bleeding disorders. To avoid the potential liability of bleeding disorders, the binding activity of certain compounds of the present invention against TP was monitored by a receptor binding assay using human platelets as the source of the receptor and [^3H]SQ29548 (generically named (5Z)-[5,6-^3H]-7-[(1S,2R,3R,4R)-3-[[2-[(phenylamino)carbonyl]hydrazinyl]methyl]-7-oxabicyclo[2.2.1]hept-2-yl]-5-heptenoic acid, from PerkinElmer Inc.) as the competing radioactive ligand.
The TP binding reactions (0.2 mL) were performed in 96-well plates at room temperature in PBS containing 5×10^7 platelets, 10 mM MgCl2, 0.06% BSA, 10 nM [^3H]SQ29548, and the test compound at various concentrations. After 1 hour of binding reactions, the platelets were harvested on GF/B filter plates (as previously described from PerkinElmer Inc.) and washed 5 times with PBS using a Filtermate™ Harvester (as previously described from PerkinElmer Inc.). The radioactivities bound to the platelets were determined using a microplate scintillation counter (TopCount® NXT, from PerkinElmer Inc.) after adding 50 μL of Microscint™ 20 scintillation fluid (from PerkinElmer Inc.) to each well of the filter plates. The radioactivity from non-specific binding was determined by replacing the compound with 10 μM of ramatroban (BAY-u3405, from Cayman Chemical Company) in the reaction mixtures. The radioactivity bound to the platelets in the absence of compound (total binding) was determined by replacing the compound with 0.25% of DMSO in the reaction mixture. Specific binding data were obtained by subtracting the radioactivity of non-specific binding from each binding data.
as §1

| Structure (SMILES) | IC50 (human CRTH2) [µM] | IC50 [1] [µM] |
| --- | --- | --- |
| CC(C)Oc1cc(C(F)(F)F)cc(S(=O)(=O)N(C)[C@@H]2CCCc3c(OCC(=O)O)cccc32)c1 [Example 9-1, {(R)-5-[(3-isopropoxy-5-trifluoromethyl-benzenesulfonyl)-methyl-amino]-5,6,7,8-tetrahydro-naphthalen-1-yloxy}-acetic acid] | 0.147 | > 10 |
| CC(F)(F)c1cc(C(F)(F)F)cc(S(=O)(=O)N[C@@H]2CCCc3c(OCC(=O)O)cccc32)c1 [Example 10-2, {(R)-5-[3-(1,1-difluoro-ethyl)-5-trifluoromethyl-benzenesulfonylamino]-5,6,7,8-tetrahydro-naphthalen-1-yloxy}-acetic acid] | 0.006 | > 10 |
| O=C(O)COc1cccc2c1CCC[C@H]2NS(=O)(=O)c1cc(C(F)(F)F)cc(C(F)(F)F)c1 [Example 10-3, [(R)-5-(3,5-bis-trifluoromethyl-benzenesulfonylamino)-5,6,7,8-tetrahydro-naphthalen-1-yloxy]-acetic acid] | 0.0063 | > 10 |
| Cc1cc(C)cc(S(=O)(=O)N[C@@H]2CCCc3c(OCC(=O)O)cccc32)c1 [Example 10-4, [(R)-5-(3,5-dimethyl-benzenesulfonylamino)-5,6,7,8-tetrahydro-naphthalen-1-yloxy]-acetic acid] | 0.31 | 8.18 |
| CC(C)c1cc(C(F)(F)F)cc(S(=O)(=O)N[C@@H]2CCCc3c(OCC(=O)O)cccc32)c1 [Example 10-6, [(R)-5-(3-isopropyl-5-trifluoromethyl-benzenesulfonylamino)-5,6,7,8-tetrahydro-naphthalen-1-yloxy]-acetic acid] | 0.0135 | > 10 |
| CC1(c2cc(C(F)(F)F)cc(S(=O)(=O)N[C@@H]3CCCc4c(OCC(=O)O)cccc43)c2)CC1 [Example 10-7, {(R)-5-[3-(1-methyl-cyclopropyl)-5-trifluoromethyl-benzenesulfonylamino]-5,6,7,8-tetrahydro-naphthalen-1-yloxy}-acetic acid] | 0.0184 | > 10 |
| CC(C)(C)c1cc(C(C)(C)C)cc(S(=O)(=O)N[C@@H]2CCCc3c(OCC(=O)O)cccc32)c1 [Example 10-8, [(R)-5-(3,5-di-tert-butyl-benzenesulfonylamino)-5,6,7,8-tetrahydro-naphthalen-1-yloxy]-acetic acid] | 0.031 | > 10 |
| CS(=O)(=O)c1cc(S(C)(=O)=O)cc(S(=O)(=O)N[C@@H]2CCCc3c(OCC(=O)O)cccc32)c1 [Example 10-9, [(R)-5-(3,5-bis-methanesulfonyl-benzenesulfonylamino)-5,6,7,8-tetrahydro-naphthalen-1-yloxy]-acetic acid] | 0.009 | > 10 |
| COc1cc(C(F)(F)F)cc(S(=O)(=O)N[C@@H]2CCCc3c(OCC(=O)O)cccc32)c1 [Example 10-10, [(R)-5-(3-methoxy-5-trifluoromethyl-benzenesulfonylamino)-5,6,7,8-tetrahydro-naphthalen-1-yloxy]-acetic acid] | 0.018 | > 10 |
| O=C(O)COc1cccc2c1CCC[C@H]2NS(=O)(=O)c1cc(Br)cc(C(F)(F)F)c1 [Example 10-11, [(R)-5-(3-bromo-5-trifluoromethyl-benzenesulfonylamino)-5,6,7,8-tetrahydro-naphthalen-1-yloxy]-acetic acid] | 0.009 | > 10 |
